Measurements as given in patent publication US11931343B2 (ARCUS BIOSCIENCES, INC., priority 2018, dated 2024).

biological target: T1, human CD73 (Homo sapiens, UniProt P21589); test: Inhibition of Ecto-5′-nucleotidase (CD73) activity in CHO-CD73 cells, phosphate release from AMP; type: cell-based; details: CHO-K1 cells stably transfected with human CD73; 25 μM AMP; 50 minutes, 37° C.; read-out: Potency: CD73 IC50
T1 sequence (P21589 27-549): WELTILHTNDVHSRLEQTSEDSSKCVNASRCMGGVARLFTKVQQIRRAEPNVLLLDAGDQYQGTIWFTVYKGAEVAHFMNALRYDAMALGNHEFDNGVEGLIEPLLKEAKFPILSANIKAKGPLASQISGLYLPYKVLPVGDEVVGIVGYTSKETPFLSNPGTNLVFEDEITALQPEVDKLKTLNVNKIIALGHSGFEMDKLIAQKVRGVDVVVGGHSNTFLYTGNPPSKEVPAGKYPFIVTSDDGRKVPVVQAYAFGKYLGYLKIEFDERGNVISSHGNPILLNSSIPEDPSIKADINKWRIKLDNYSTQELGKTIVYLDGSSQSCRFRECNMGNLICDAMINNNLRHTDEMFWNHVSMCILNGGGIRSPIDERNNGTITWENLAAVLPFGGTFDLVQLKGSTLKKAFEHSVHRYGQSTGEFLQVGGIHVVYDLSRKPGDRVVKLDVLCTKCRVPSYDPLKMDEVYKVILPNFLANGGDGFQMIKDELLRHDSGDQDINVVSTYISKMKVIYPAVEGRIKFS

Row | IC50 | SMILES
1 | 100 to 1000 nM | Cc1cccc(-n2ncc(Cl)c2-c2cc(F)c3nnn(-c4ccc5cn[nH]c5c4)c3c2)c1 [Example 413]
2 | > 1000 nM | Cc1cccc(-n2ncc(C)c2-c2cc(F)c3nnn(-c4ccc5cn[nH]c5c4)c3c2)c1 [Example 416]
3 | > 1000 nM | C=CCNc1nn(-c2ccc3cn[nH]c3c2)c2cc(-c3ccnn3Cc3ccc(C#N)cc3)cnc12 [Example 417]
4 | 100 to 1000 nM | CC(c1ccc(C#N)cc1F)n1nccc1-c1cc(Cl)c2nnn(-c3ccc4[nH]c(=O)[nH]c4c3)c2c1 (centres unmarked) [Example 418]
5 | 100 to 1000 nM | N#Cc1ccc(C(CO)n2nccc2-c2cc(F)c3nnn(-c4ccc5cn[nH]c5c4)c3c2)cc1 (centres unmarked) [Example 419]
6 | > 1000 nM | N#Cc1ccc(Cn2nccc2-c2cnc3c(NCCO)nn(-c4ccc5cn[nH]c5c4)c3c2)cc1 [Example 420]
7 | 100 to 1000 nM | N#Cc1ccc(Cn2nccc2-c2cc3c(cc2CO)nnn3-c2ccc3cn[nH]c3c2)cc1 [Example 421]
8 | > 1000 nM | N#Cc1ccc(Cn2nccc2-c2cnc3c(NCC(O)CO)nn(-c4ccc5cn[nH]c5c4)c3c2)cc1 (centres unmarked) [Example 422]
9 | > 1000 nM | CNc1nn(-c2ccc3cn[nH]c3c2)c2cc(-c3ccnn3Cc3ccc(C#N)cc3)cnc12 [Example 423]
10 | > 1000 nM | CN(C)S(=O)(=O)Nc1nn(-c2ccc3cn[nH]c3c2)c2cc(-c3ccnn3Cc3ccc(C#N)cc3)cnc12 [Example 424]
11 | > 1000 nM | CCNc1nn(-c2ccc3cn[nH]c3c2)c2cc(-c3ccnn3Cc3ccc(C#N)cc3)cnc12 [Example 425]

More lines, now with the values behind:

Row | SMILES | IC50
12 | N#Cc1cccc(-n2nccc2-c2cc3c(cc2Cl)nnn3-c2ccc3cn[nH]c3c2)c1 [Example 403] | > 1000 nM
13 | Clc1cccc(-n2nccc2-c2cc3c(cc2Cl)nnn3-c2ccc3cn[nH]c3c2)c1 [Example 404] | 100 to 1000 nM
14 | Cc1nn(-c2ccc3cn[nH]c3c2)c2cc(-c3ccnn3Cc3ccc(C#N)cc3)ncc12 [Example 405] | 100 to 1000 nM
15 | Cc1cccc(-n2nccc2-c2cc3c(cc2C)nnn3-c2ccc3cn[nH]c3c2)c1 [Example 406] | > 1000 nM
16 | Cc1cccc(-n2nccc2-c2cnc3c(C)nn(-c4ccc5cn[nH]c5c4)c3c2)c1 [Example 408] | 100 to 1000 nM
17 | Cc1ccc(F)c(-n2nccc2-c2cc3c(cn2)nnn3-c2ccc3cn[nH]c3c2)c1 [Example 409] | > 1000 nM
18 | N#Cc1ccc(Cn2nccc2-c2cc(F)c3nnn(-c4ccc5cn[nH]c5c4F)c3c2)cc1 [Example 410] | 100 to 1000 nM
19 | Cc1cccc(-n2nccc2-c2cc3c(cc2Cl)nnn3-c2ccc3cn[nH]c3c2)c1 [Example 411] | 100 to 1000 nM
20 | CC(c1ccc(C#N)cc1F)n1nccc1-c1cc2c(cc1F)nnn2-c1ccc2cn[nH]c2c1 (centres unmarked) [Example 412] | 100 to 1000 nM
